Assay results from US6441237B1, “Substituted 3-phenoxy- and 3-phenylalkyloxy-2-phenyl-propylamines” (Boehringer Ingelheim Pharma KG, priority 1999, dated 2002).

For Br.Cc1cccc(C)c1C(CNC(C)C)COCc1ccccc1F (stereo not drawn), the melting point was 111 °C.
C=C(C)CN(C)CC(c1c(C)cccc1C)C(OC)c1c(F)cccc1F.O=C(O)C(=O)O (stereo not drawn) gave a melting point of 128 °C.
In the case of C#CCNCC(COCc1ccccc1F)c1c(C)cccc1C.Cl (stereo not drawn), the melting point is reported as 112 °C.
Compound COCCNCC(COCc1c(F)cccc1F)c1c(C)cccc1C.Cl (stereo not drawn) has a melting point of 128 °C.
Work on CCCNCC(COCc1ccccc1F)c1c(C)cccc1C.Cl (stereo not drawn) yielded a melting point of 100 °C.
Cc1cccc(C)c1C(CNC(C)C)COCc1ccccc1F.Cl (stereo not drawn) gave a melting point of 123 °C.
Work on Cc1cccc(C)c1C(CNC1CCCC1)COCc1ccccc1F.Cl (stereo not drawn) yielded a melting point of 102 °C.
Br.Cc1cccc(C)c1C(CNCC1CCCO1)COCc1c(F)cccc1F (stereo not drawn) showed a melting point of 149 °C.
Compound CCCNCC(COCc1c(F)cccc1F)c1c(C)cccc1C.Cl (stereo not drawn) has a melting point of 142 °C.
Compound Br.CCCN(CCC)CC(COCc1c(F)cccc1F)c1c(C)cccc1C (stereo not drawn) has a melting point of 143 °C.
For Cc1cccc(C)c1C(CNC(C)C)COCc1c(F)cccc1F.Cl (stereo not drawn), the melting point was 138 °C.
Compound Cc1cccc(C)c1C(CNCC(C)C)COCc1c(F)cccc1F.Cl (stereo not drawn) has a melting point of 119 °C.
Compound Cc1cccc(C)c1C(CNC1CCCC1)COCc1c(F)cccc1F.Cl (stereo not drawn) has a melting point of 130 °C.
Compound Cc1cccc(C)c1C(COCc1c(F)cccc1F)CN(C)C.Cl (stereo not drawn) has a melting point of 144 °C.
With Cc1cccc(C)c1C(CNCC1CC1)COCc1c(F)cccc1F.Cl (stereo not drawn) the melting point was 145 °C.
For COCCNCC(COCc1ccccc1F)c1c(C)cccc1C.Cl (stereo not drawn), the melting point was 77 °C.
Work on Cc1cccc(C)c1C(CNCC1CC1)COCc1c(F)cccc1Cl.Cl (stereo not drawn) yielded a melting point of 154 °C.
Cc1cccc(C)c1COCC(CNCC1CC1)c1c(C)cccc1C.Cl (stereo not drawn) gave a melting point of 142 °C.
In the case of Br.Cc1cccc(C)c1C(CNCC1CC1)COCc1ccccc1F (stereo not drawn), the melting point is reported as 101 °C.
Cc1cccc(C)c1C(CNCC1CC1)COCc1ccccc1F.Cl (stereo not drawn) gave a melting point of 101 °C.
Cc1cccc(C)c1C(CNCC1CCC1)COCc1ccccc1F.Cl (stereo not drawn) showed a melting point of 191 °C.
In the case of C#CCNCC(COCc1c(F)cccc1F)c1c(C)cccc1C.Cl (stereo not drawn) [8.9], the melting point is reported as 124 °C.
Compound C#CCNCC(COCc1c(F)cccc1F)c1c(C)cccc1C.Cl (stereo not drawn) [8.12] has a melting point of 145 °C.
C=CCN(C)CC(c1c(C)cccc1C)C(OC)c1c(F)cccc1F.Cl (stereo not drawn) [11.55] showed a melting point of 116 °C.
